Measurements published in patent US9434925B2, “Genetically modified mesenchymal stem cell that express an exogenous cytotoxic protein” (APCETH GMBH & CO. KG, priority 2009, dated 2016).

Tested on: human MSCs carrying pLenti6 TK RANTES (HSV tk under RANTES promoter)
Assay: Specific cell death of induced genetically modified MSCs after ganciclovir treatment
Format: cell-based
Conditions: 9 days TNFα (10 ng/ml) and IFNγ (10 ng/ml), then 3 days 100 μM ganciclovir
Description: Human MSCs were incubated over night with replication deficient lentiviruses carrying the vector pLenti6 TK RANTES harboring the HSV tk gene under the control of the RANTES promoter and the blasticidin resistance gene under the control of the SV40 promoter (multiplicity of infection (MOI): 10) (see FIG. 8).
After overnight incubation the virus containing media was removed and replaced with fresh media. The next day blasticidin (6 μg/ml) was added to the cells to select for genetically modified MSCs. Culture media, including blasticidin was changed every 3 to 4 days for a minimum of 6 days.
Genetically modified cells (50000 cells in per 6 well) that were generated as described above were treated for 9 days with TNFα (10 ng/ml) and IFNγ (10 ng/ml) with addition of fresh cytokines every 3 days. Subsequently the cells were incubated for 3 days with 100 μM ganciclovir.

Nc1nc(O)c2ncn(COC(CO)CO)c2n1 [ganciclovir]
survival of genetically modified MSCs: not surviving
